Laboratory results reported in ChEMBL document CHEMBL4196010, “New hydrazides derivatives of isoniazid against Mycobacterium tuberculosis: Higher potency and lower hepatocytotoxicity” (Eur J Med Chem, 2018).
Values after ≈ are worked out from the molar mass of the structure shown.

Experiments:
[1] = tested on: J774.A1; test: Cytotoxicity against mouse J774A.1 cells assessed as decrease in cell viability at 10 uM after 20 hrs by resazurin dye-based fluorimetric method; settings: j774.a1, 20 h
[2] = tested on: J774.A1; test: Cytotoxicity against mouse J774A.1 cells assessed as decrease in cell viability at 100 uM after 20 hrs by resazurin dye-based fluorimetric method; settings: j774.a1, 20 h
[3] = tested on: Mycobacterium tuberculosis; test: Potency index, ratio of pyrazinamide MIC to compound MIC for antitubercular activity against Mycobacterium tuberculosis H37Rv ATCC 27294; type: functional
[4] = tested on: J774.A1; test: Cytotoxicity against mouse J774A.1 cells assessed as decrease in cell viability at 10 nM after 20 hrs by resazurin dye-based fluorimetric method; settings: j774.a1, 20 h, 0.01 µM
[5] = tested on: J774.A1; test: Cytotoxicity against mouse J774A.1 cells assessed as decrease in cell viability at 1 uM after 20 hrs by resazurin dye-based fluorimetric method; settings: j774.a1, 20 h
[6] = tested on: Mycobacterium tuberculosis; test: Antitubercular activity against Mycobacterium tuberculosis H37Rv ATCC 27294 after 5 days by microplate alamar blue assay; type: functional; settings: H37Rv ATCC 27294, 120 h
[7] = tested on: J774.A1; test: Cytotoxicity against mouse J774A.1 cells assessed as decrease in cell viability at 100 nM after 20 hrs by resazurin dye-based fluorimetric method; settings: j774.a1, 20 h, 0.1 µM
[8] = Selectivity index, ratio of LC50 for human HepG2 cells to MIC for Mycobacterium tuberculosis H37Rv ATCC 27294; type: toxicity; settings: read-out: Selectivity Index
[9] = Cytotoxicity against human HepG2 cells after 24 hrs by WST-1 assay; type: cell-based; settings: read-out: LC50
[10] = tested on: Mycobacterium tuberculosis; test: Potency index, ratio of ethambutol MIC to compound MIC for antitubercular activity against Mycobacterium tuberculosis H37Rv ATCC 27294; type: functional
[11] = Cytotoxicity against human HepG2 cells after 3 hrs by WST-1 assay; type: cell-based; settings: read-out: LC50
[12] = tested on: J774.A1; test: Cytotoxicity against mouse J774A.1 cells assessed as decrease in cell viability at 1 nM after 20 hrs by resazurin dye-based fluorimetric method; settings: j774.a1, 20 h, 0.001 µM
[13] = tested on: Salmonella typhimurium; test: Genotoxicity in Salmonella typhimurium TA98 assessed as increase in revertant colonies at 5000 uM preincubated for 20 mins followed by addition of top agar and minimal agar and measured after 72 hrs in presence of S9 metabolic activation system by Ames test relative to control; type: toxicity, organism-based; settings: salmonella enterica subsp. enterica serovar typhimurium
[14] = tested on: Salmonella typhimurium; test: Genotoxicity in Salmonella typhimurium TA100 assessed as increase in revertant colonies at 50 uM preincubated for 20 mins followed by addition of top agar and minimal agar and measured after 72 hrs in absence of S9 metabolic activation system by Ames test relative to control; type: toxicity, organism-based; settings: salmonella enterica subsp. enterica serovar typhimurium
[15] = tested on: Salmonella typhimurium; test: Genotoxicity in Salmonella typhimurium TA100 assessed as increase in revertant colonies at 0.5 uM preincubated for 20 mins followed by addition of top agar and minimal agar and measured after 72 hrs in presence of S9 metabolic activation system by Ames test relative to control; type: toxicity, organism-based; settings: salmonella enterica subsp. enterica serovar typhimurium
[16] = tested on: Salmonella typhimurium; test: Genotoxicity in Salmonella typhimurium TA98 assessed as increase in revertant colonies at 5000 uM preincubated for 20 mins followed by addition of top agar and minimal agar and measured after 72 hrs in absence of S9 metabolic activation system by Ames test relative to control; type: toxicity, organism-based; settings: salmonella enterica subsp. enterica serovar typhimurium
[17] = tested on: Salmonella typhimurium; test: Genotoxicity in Salmonella typhimurium TA100 assessed as increase in revertant colonies at 5 uM preincubated for 20 mins followed by addition of top agar and minimal agar and measured after 72 hrs in absence of S9 metabolic activation system by Ames test relative to control; type: toxicity, organism-based; settings: salmonella enterica subsp. enterica serovar typhimurium
[18] = tested on: Salmonella typhimurium; test: Genotoxicity in Salmonella typhimurium TA100 assessed as increase in revertant colonies at 500 uM preincubated for 20 mins followed by addition of top agar and minimal agar and measured after 72 hrs in absence of S9 metabolic activation system by Ames test relative to control; type: toxicity, organism-based; settings: salmonella enterica subsp. enterica serovar typhimurium
[19] = tested on: Salmonella typhimurium; test: Genotoxicity in Salmonella typhimurium TA100 assessed as increase in revertant colonies at 50 uM preincubated for 20 mins followed by addition of top agar and minimal agar and measured after 72 hrs in presence of S9 metabolic activation system by Ames test relative to control; type: toxicity, organism-based; settings: salmonella enterica subsp. enterica serovar typhimurium
[20] = tested on: Salmonella typhimurium; test: Genotoxicity in Salmonella typhimurium TA100 assessed as increase in revertant colonies at 0.5 uM preincubated for 20 mins followed by addition of top agar and minimal agar and measured after 72 hrs in absence of S9 metabolic activation system by Ames test relative to control; type: toxicity, organism-based; settings: salmonella enterica subsp. enterica serovar typhimurium
[21] = tested on: Salmonella typhimurium; test: Genotoxicity in Salmonella typhimurium TA100 assessed as increase in revertant colonies at 5000 uM preincubated for 20 mins followed by addition of top agar and minimal agar and measured after 72 hrs in absence of S9 metabolic activation system by Ames test relative to control; type: toxicity, organism-based; settings: salmonella enterica subsp. enterica serovar typhimurium
[22] = tested on: Salmonella typhimurium; test: Genotoxicity in Salmonella typhimurium TA100 assessed as increase in revertant colonies at 5 uM preincubated for 20 mins followed by addition of top agar and minimal agar and measured after 72 hrs in presence of S9 metabolic activation system by Ames test relative to control; type: toxicity, organism-based; settings: salmonella enterica subsp. enterica serovar typhimurium
[23] = tested on: Salmonella typhimurium; test: Genotoxicity in Salmonella typhimurium TA98 assessed as increase in revertant colonies at 5 uM preincubated for 20 mins followed by addition of top agar and minimal agar and measured after 72 hrs in absence of S9 metabolic activation system by Ames test relative to control; type: toxicity, organism-based; settings: salmonella enterica subsp. enterica serovar typhimurium
[24] = tested on: Salmonella typhimurium; test: Genotoxicity in Salmonella typhimurium TA98 assessed as increase in revertant colonies at 500 uM preincubated for 20 mins followed by addition of top agar and minimal agar and measured after 72 hrs in absence of S9 metabolic activation system by Ames test relative to control; type: toxicity, organism-based; settings: salmonella enterica subsp. enterica serovar typhimurium
[25] = tested on: Salmonella typhimurium; test: Genotoxicity in Salmonella typhimurium TA98 assessed as increase in revertant colonies at 50 uM preincubated for 20 mins followed by addition of top agar and minimal agar and measured after 72 hrs in absence of S9 metabolic activation system by Ames test relative to control; type: toxicity, organism-based; settings: salmonella enterica subsp. enterica serovar typhimurium
[26] = tested on: Salmonella typhimurium; test: Genotoxicity in Salmonella typhimurium TA98 assessed as increase in revertant colonies at 0.5 uM preincubated for 20 mins followed by addition of top agar and minimal agar and measured after 72 hrs in absence of S9 metabolic activation system by Ames test relative to control; type: toxicity, organism-based; settings: salmonella enterica subsp. enterica serovar typhimurium
[27] = tested on: Salmonella typhimurium; test: Genotoxicity in Salmonella typhimurium TA98 assessed as increase in revertant colonies at 0.5 uM preincubated for 20 mins followed by addition of top agar and minimal agar and measured after 72 hrs in presence of S9 metabolic activation system by Ames test relative to control; type: toxicity, organism-based; settings: salmonella enterica subsp. enterica serovar typhimurium
[28] = tested on: Salmonella typhimurium; test: Genotoxicity in Salmonella typhimurium TA98 assessed as increase in revertant colonies at 50 uM preincubated for 20 mins followed by addition of top agar and minimal agar and measured after 72 hrs in presence of S9 metabolic activation system by Ames test relative to control; type: toxicity, organism-based; settings: salmonella enterica subsp. enterica serovar typhimurium
[29] = tested on: Salmonella typhimurium; test: Genotoxicity in Salmonella typhimurium TA98 assessed as increase in revertant colonies at 500 uM preincubated for 20 mins followed by addition of top agar and minimal agar and measured after 72 hrs in presence of S9 metabolic activation system by Ames test relative to control; type: toxicity, organism-based; settings: salmonella enterica subsp. enterica serovar typhimurium
[30] = tested on: Salmonella typhimurium; test: Genotoxicity in Salmonella typhimurium TA98 assessed as increase in revertant colonies at 5 uM preincubated for 20 mins followed by addition of top agar and minimal agar and measured after 72 hrs in presence of S9 metabolic activation system by Ames test relative to control; type: toxicity, organism-based; settings: salmonella enterica subsp. enterica serovar typhimurium

## O=C(CCl)Nc1ccccc1C(=O)C(=O)NNC(=O)c1ccncc1
[1]
  Activity: 98.8%
[2]
  Activity: 63.3%
[3]
  Ratio: 1800
[4]
  Activity: 98.5%
[5]
  Activity: 96.5%
[6]
  MIC: 0.43 µM (≈ 0.155 µg/mL)
[7]
  Activity: 97.9%
[8]
  selectivity ratio: 256
[9]
  CC50 at 24 h: 110 µM
[10]
  Ratio: 30
[11]
  CC50 at 3 h: > 200 µM
[12]
  Activity: 99%

## CC(=O)Nc1ccc(C)cc1C(=O)C(=O)NNC(=O)c1ccncc1
[1]
  Activity: 98.2%
[13]
  fold change (FC): 4
[2]
  Activity: 94%
[14]
  fold change (FC): 1.4
[15]
  fold change (FC): 1.1
[3]
  Ratio: 1800
[4]
  Activity: 100%
[16]
  fold change (FC): 3.4
[17]
  fold change (FC): 1.2
[18]
  fold change (FC): 1.4
[19]
  Activity: Toxic
[20]
  fold change (FC): 1.2
[21]
  fold change (FC): 1.6
[22]
  fold change (FC): 1.5
[5]
  Activity: 99.2%
[23]
  fold change (FC): 1.6
[24]
  fold change (FC): 1.9
[25]
  fold change (FC): 1.8
[6]
  MIC: 0.45 µM (≈ 0.153 µg/mL)
[7]
  Activity: 99.5%
[8]
  selectivity ratio: > 444
[9]
  CC50 at 24 h: > 200 µM
[10]
  Ratio: 30
[11]
  CC50 at 3 h: > 200 µM
[26]
  fold change (FC): 1.2
[12]
  Activity: 100%
[27]
  fold change (FC): 1
[28]
  fold change (FC): 1.8
[29]
  fold change (FC): 3.4
[30]
  fold change (FC): 1.7

## CC(=O)Nc1ccc(C)cc1C(F)(F)C(=O)NNc1ccccc1
[6]
  MIC: > 300 µM

## CC(=O)Nc1ccc(Cl)cc1C(F)(F)C(=O)NNC(=O)c1ccncc1
[6]
  MIC: 16.4 µM (≈ 6.27 µg/mL)

## CC(=O)Nc1ccccc1C(F)(F)C(=O)NNC(=O)c1ccncc1
[6]
  MIC: 3.59 µM (≈ 1.25 µg/mL)

## CC(=O)Nc1ccccc1C(F)(F)C(=O)NNC(=N)N
[6]
  MIC: > 351 µM

## CC(=O)Nc1ccccc1C(F)(F)C(=O)NNc1ccccc1
[6]
  MIC: > 313 µM

## COc1ccc(NC(C)=O)c(C(F)(F)C(=O)NNC(=O)c2ccncc2)c1
[6]
  MIC: 33.1 µM (≈ 12.5 µg/mL)

## CC(=O)Nc1ccccc1C(F)(F)C(=O)NNc1ccccn1
[6]
  MIC: > 312 µM

## CC(=O)Nc1ccc(C)cc1C(F)(F)C(=O)NNc1ccccn1
[6]
  MIC: > 299 µM

## CC(=O)NNC(=O)c1ccncc1
[6]
  MIC: > 559 µM

## NNC(=O)c1ccncc1 [ISONIAZID]
[1]
  Activity: 98.5%
[13]
  Activity: Toxic
[2]
  Activity: 90.3%
[14]
  fold change (FC): 1.3
[15]
  fold change (FC): 1.4
[4]
  Activity: 98.2%
[16]
  fold change (FC): 4
[17]
  fold change (FC): 1.2
[18]
  fold change (FC): 1.6
[19]
  Activity: Toxic
[20]
  fold change (FC): 1.1
[21]
  fold change (FC): 1.9
[22]
  fold change (FC): 1.4
[5]
  Activity: 98.7%
[23]
  fold change (FC): 1.6
[24]
  fold change (FC): 3.7
[25]
  fold change (FC): 2
[6]
  MIC: 0.88 µM (≈ 0.121 µg/mL)
[7]
  Activity: 97.3%
[8]
  selectivity ratio: 119
[9]
  CC50 at 24 h: 105 µM
[11]
  CC50 at 3 h: > 200 µM
[26]
  fold change (FC): 1.5
[12]
  Activity: 99.5%
[27]
  fold change (FC): 1.3
[28]
  fold change (FC): 1.5
[29]
  fold change (FC): 1.6
[30]
  fold change (FC): 1.3

## O=C(NNC(=O)c1ccncc1)C(=O)c1ccccc1NC(=O)c1ccccc1
[1]
  Activity: 98%
[2]
  Activity: 86.5%
[4]
  Activity: 99.4%
[5]
  Activity: 98.2%
[6]
  MIC: 8.04 µM (≈ 3.12 µg/mL)
[7]
  Activity: 99.8%
[8]
  selectivity ratio: > 25
[9]
  CC50 at 24 h: > 200 µM
[11]
  CC50 at 3 h: > 200 µM
[12]
  Activity: 100%

## NC(=O)c1cnccn1 [PYRAZINAMIDE]
[6]
  MIC: 813 µM (≈ 100 µg/mL)

## CO[C@H]1/C=C/O[C@@]2(C)Oc3c(C)c(O)c4c(O)c(c(/C=N/N5CCN(C)CC5)c(O)c4c3C2=O)NC(=O)/C(C)=C\C=C\[C@H](C)[C@H](O)[C@@H](C)[C@@H](O)[C@@H](C)[C@H](OC(C)=O)[C@@H]1C [RIFAMPIN]
[6]
  MIC: 1.22 µM (≈ 1 µg/mL)

## CC(=O)Nc1ccccc1C(F)(F)C(=O)NN=C1CCCCC1
[6]
  MIC: > 310 µM

## CC(=O)Nc1ccc(F)cc1C(F)(F)C(=O)NNC(=O)c1ccncc1
[6]
  MIC: 17.1 µM (≈ 6.26 µg/mL)

## CC[C@@H](CO)NCCN[C@@H](CC)CO [ETHAMBUTOL]
[6]
  MIC: 15.9 µM (≈ 3.25 µg/mL)

## CC(=O)Nc1ccc(C)cc1C(F)(F)C(=O)NNC(=O)c1ccncc1
[6]
  MIC: 6.91 µM (≈ 2.5 µg/mL)

## CC(=O)Nc1ccc(C)cc1C(F)(F)C(=O)NN
[6]
  MIC: > 412 µM
